From the RepoRT retention time repository

Experiment: A: acetonitrile + 0.1% formic acid + 10 mM ammonium formate; B: 5% water + 95% acetonitrile + 0.1% formic acid + 10 mM ammonium formate; gradient (min/%B) 0/10 2/10 22/100 27/100 27.1/10
Details: stereoisomer not certain

| Compound | LC retention time |
| --- | --- |
| C[S+](CC[C@H](N)C(=O)[O-])C[C@H]1O[C@@H](n2cnc3c(N)ncnc32)[C@H](O)[C@@H]1O (stereo partly drawn) [S-(5'-Adenosyl)-L-methionine] | 8.08 min |
| CN1CCCC1c1cccnc1 [L-Nicotine] | 3.88 min |
| CN(C)CCCN1c2ccccc2CCc2ccc(Cl)cc21 [Clomipramine] | 0.942 min |
| O=C(CCc1ccc(O)cc1)c1c(O)cc(O)cc1OC1OC(CO)C(O)C(O)C1O (stereo unspecified) [Phloridzin] | 1.25 min |
| CC(C)C(N)CC(=O)O (racemic) [DL-beta-Leucine] | 5.29 min |
| Cn1cnc2c1c(=O)[nH]c(=O)n2C [Theobromine] | 0.687 min |
| CC12CCC(=O)C=C1CCC1C2C(O)CC2(C)C(C(=O)CO)CCC12 (stereo unspecified) [Corticosterone] | 0.472 min |
| C[N+](C)(C)CCOP(=O)(O)OP(=O)([O-])OCC1OC(n2ccc(N)nc2=O)C(O)C1O (stereo unspecified) [Citicoline] | 8.51 min |
| O=c1cc(-c2ccccc2)oc2cc(O)cc(O)c12 [Chrysin] | 0.434 min |
| N[C@@H](CS(=O)(=O)O)C(=O)O [L-Cysteic acid] | 6.79 min |
| COc1ccccc1C=CC=O [2-Methoxycinnamaldehyde] | 0.436 min |
| O=C(O)C=Cc1cnc[nH]1 [Urocanic acid] | 1.89 min |
| C[n+]1cccc(C(=N)[O-])c1 [1-Methylnicotinamide] | 4.68 min |
| NC(N)=NCCC[C@H](N)C(=O)O [L-Arginine] | 7.48 min |
| CCOC(=O)C1=C(COCCN)NC(C)=C(C(=O)OC)C1c1ccccc1Cl (stereo unspecified) [Amlodipine] | 2.02 min |
| N[C@@H](Cc1ccccc1)C(=O)O [L-Phenylalanine] | 4.83 min |
| NC1(C(=O)O)CC1 [1-Aminocyclopropanecarboxylic acid] | 6.03 min |
| NC(=O)C(N)Cc1c[nH]c2ccccc12 (stereo unspecified) [H-Trp-NH2] | 3.39 min |
| CCN(CC)CCOc1ccc(C(=C(Cl)c2ccccc2)c2ccccc2)cc1 [Clomiphene] | 0.799 min |
| O=c1[nH]c(=O)c2cn[nH]c2[nH]1 [Oxipurinol] | 1.88 min |
| CC(CCC(=O)NCCS(=O)(=O)O)C1CCC2C3CCC4CC(O)CCC4(C)C3CC(O)C12C (stereo unspecified) [Taurodeoxycholic acid] | 2.71 min |
| N[C@@H](Cc1cnc[nH]1)C(=O)O [L-Histidine] | 7.73 min |
| CC(=O)C1=CCC2C3CCC4=CC(=O)CCC4(C)C3CCC12C (stereo unspecified) [16-Dehydroprogesterone] | 0.423 min |

| Compound | LC retention time |
| --- | --- |
| Nc1nc2c(ncn2C2CC(O)C(COP(=O)(O)O)O2)c(=O)[nH]1 (stereo unspecified) [2'-Deoxyguanosine 5'-monophosphate] | 7.1 min |
| O=C(O)c1cccnc1 [Nicotinic acid] | 2.44 min |
| N[C@@H](Cc1ccc(O)c(O)c1)C(=O)O [L-Dopa] | 6.06 min |
| CC(=O)NCCc1c[nH]c2ccc(O)cc12 [N-Acetyl-5-hydroxytryptamine] | 0.492 min |
| C=C(OP(=O)(O)O)C(=O)O [Phospho(enol)pyruvic Acid] | 7.08 min |
| NCCCCN=C(N)N [Agmatine] | 6.99 min |
| NC(=O)CCC(NC(=O)Cc1ccccc1)C(=O)O (stereo unspecified) [Phenyl-Ac-Gln-OH] | 3.83 min |
| CC1=C(CC(=O)O)c2cc(F)ccc2C1=Cc1ccc(S(C)=O)cc1 (stereo unspecified) [Sulindac] | 0.56 min |
| O=C(O)c1c[nH]c2ccccc12 [Indole-3-carboxylic acid] | 0.506 min |
| CCc1ccc(CCOc2ccc(CC3SC(=O)NC3=O)cc2)nc1 (stereo unspecified) [Pioglitazone] | 0.47 min |
| O=C(O)/C=C/c1ccccc1 [trans-Cinnamic acid] | 0.485 min |
| OCC(O)C(O)C(OC1OC(CO)C(O)C(O)C1O)C(O)CO (stereo unspecified) [Maltitol] | 6.59 min |
| O=C(CO)COP(=O)(O)O [Dihydroxyacetone phosphate] | 6.59 min |
| CCCCC1=NC2(CCCC2)C(=O)N1Cc1ccc(-c2ccccc2-c2nn[nH]n2)cc1 [Irbesartan] | 0.475 min |
| Nc1nc2nc[nH]c2c(=O)[nH]1 [Guanine] | 3.98 min |
| CC(C)(CO)C(O)C(=O)NCCC(=O)O (single isomer, unassigned; (+)) [(+)-Pantothenic acid] | 2.17 min |
| Nc1ccc(S(=O)(=O)c2ccc(N)cc2)cc1 [4,4'-Diaminodiphenyl sulfone] | 0.441 min |
| CC(CCC(=O)NCCS(=O)(=O)O)C1CCC2C3C(O)CC4CC(O)CCC4(C)C3CCC12C (stereo unspecified) [Tauroursodeoxycholic acid] | 2.7 min |
| O=C(O)Cc1c[nH]c2ccc(O)cc12 [5-Hydroxyindole-3-acetic acid] | 0.651 min |
| Nc1nc2c(c(=O)[nH]1)N(C=O)C(CNc1ccc(C(=O)NC(CCC(=O)O)C(=O)O)cc1)CN2 (stereo unspecified) [Folinic acid] | 5.94 min |
| NCC(O)CCC(N)C(=O)O (racemic) [DL-5-Hydroxylysine] | 7.93 min |
| O=C(O)c1cc(=O)c2ccccc2[nH]1 [Kynurenic acid] | 3.56 min |
| OCCNCCO [Diethanolamine] | 5.23 min |

| Compound | LC retention time |
| --- | --- |
| CC(=O)O[C@H](CC(=O)[O-])C[N+](C)(C)C [O-Acetyl-L-carnitine] | 5.88 min |
| CN(C)CCCN1c2ccccc2Sc2ccc(Cl)cc21 [Chlorpromazine] | 1 min |
| O=C1CC[C@@H](C(=O)O)N1 [L-Pyroglutamic acid] | 6.81 min |
| CNCCC(Oc1ccc(C(F)(F)F)cc1)c1ccccc1 (stereo unspecified) [Fluoxetine] | 0.978 min |
| NC(=O)C[C@H](N)C(=O)O [L-Asparagine] | 6.65 min |
| Nc1ccc(C(=O)O)c(O)c1 [4-Aminosalicylic Acid] | 0.675 min |
| O=c1[nH]c(=O)c2[nH]cnc2[nH]1 [Xanthine] | 2.92 min |
| COc1ccccc1OCCNCC(O)COc1cccc2[nH]c3ccccc3c12 (stereo unspecified) [Carvedilol] | 1.03 min |
| CCN(Cc1ccncc1)C(=O)C(CO)c1ccccc1 (stereo unspecified) [Tropicamide] | 0.641 min |
| CC12CCC(=O)C=C1CCC1C2CCC2(C)C1CCC2(O)C(=O)CO (stereo unspecified) [Cortexolone] | 0.459 min |
| Nc1ncnc2c1ncn2C1OC2COP(=O)(O)OC2C1O (stereo unspecified) [Adenosine cyclophosphate] | 5.66 min |
| NCCc1c[nH]c2ccccc12 [Tryptamine] | 2.25 min |
| Nc1ccn(C2OC(COP(=O)(O)OP(=O)(O)OP(=O)(O)O)C(O)C2O)c(=O)n1 (stereo unspecified) [Cytidine 5'-triphosphate] | 10.1 min |
| COC(=O)CCCC(=O)O [Monomethyl glutarate] | 0.562 min |
| O=C(O)CCc1c[nH]c2ccccc12 [3-Indolepropionic acid] | 0.467 min |
| NCC(O)c1ccccc1 (stereo unspecified) [2-Amino-1-phenylethanol] | 2.92 min |
| CC(N)c1ccccc1 (stereo not drawn) [alpha-Methylbenzylamine] | 2.3 min |
| NC(CCSCC(N)C(=O)O)C(=O)O (stereo unspecified) [Cystathionine] | 8.01 min |
| CCCCC(=O)N(Cc1ccc(-c2ccccc2-c2nn[nH]n2)cc1)C(C(=O)O)C(C)C (stereo unspecified) [Valsartan] | 0.733 min |
| NC(N)=Nc1nc(CSCCC(N)=NS(N)(=O)=O)cs1 [Famotidine] | 2.9 min |
| CC1CNC(=O)NC1=O (stereo unspecified) [5,6-Dihydro Thymine] | 0.621 min |
| Nc1ncnc2c1ncn2C1CC(O)C(CO)O1 (stereo unspecified) [2'-Deoxyadenosine] | 1.39 min |
| CCCCCCCCCCCCCC(=O)OCC(COP(=O)(O)OCCN)OC(=O)CCCCCCCCCCCCC (stereo unspecified) [1,2-Dimyristoyl-sn-glycero-3-phosphoethanolamine] | 2.44 min |

| Compound | LC retention time |
| --- | --- |
| C=C(C)C1CCC2=CC(=O)CC(C)C2(C)C1 (single isomer, unassigned; (+)) [(+)-Nootkatone] | 0.417 min |
| CCCCCCCC(=O)NCC(=O)O [Capryloyl glycine] | 0.943 min |
| NC(CCC(=O)NC(CSSCC(NC(=O)CCC(N)C(=O)O)C(=O)NCC(=O)O)C(=O)NCC(=O)O)C(=O)O [L-Glutathione oxidized] | 8.69 min |
| CN1C(=O)CCC1c1cccnc1 [(S)-Cotinine] | 0.622 min |
| O=c1[nH]cnc2c1ncn2C1OC(CO)C(O)C1O (stereo unspecified) [Inosine] | 3.94 min |
| NC12CC3CC(CC(C3)C1)C2 [1-Aminoadamantane] | 2.36 min |
| Cn1c(=O)c2[nH]cnc2n(C)c1=O [Theophylline] | 0.596 min |
| O=C(O)c1ccncc1 [Isonicotinic acid] | 3.05 min |
| CC12C=CC(=O)C=C1CCC1C2C(O)CC2(C)C1CCC2(O)C(=O)CO (stereo unspecified) [Hydroretrocortine] | 0.485 min |
| CC(C)OC(=O)C(C)(C)Oc1ccc(C(=O)c2ccc(Cl)cc2)cc1 [Fenofibrate] | 0.401 min |
| CN[C@@H](CCC(=O)O)C(=O)O [N-Methyl-L-glutamic acid] | 6.54 min |
| O=c1[nH]cnc2c1ncn2C1CC(O)C(CO)O1 (stereo unspecified) [Deoxyinosine] | 2.64 min |
| N[C@@H](Cc1ccc(O)cc1)C(=O)O [L-Tyrosine] | 5.62 min |
| COc1cc(CCN)ccc1O [3-Methoxytyramine] | 2.92 min |
| NCC(O)c1ccc(O)cc1 (stereo unspecified) [Octopamine] | 3.85 min |
| O=C(O)CNC(=O)c1cccc(O)c1 [m-Hydroxyhippuric Acid] | 3.46 min |
| NCC(CC(=O)O)c1ccc(Cl)cc1 (stereo unspecified) [Baclofen] | 4.14 min |
| Cc1ncc(CO)c(CN)c1O [Pyridoxamine] | 6.5 min |
| Nc1ncnc2c1ncn2C1OC(COP(=O)(O)O)C(O)C1O (stereo unspecified) [Adenosine-5'-monophosphate] | 6.76 min |
| O=c1cc(-c2ccc(O)cc2)oc2cc(O)cc(O)c12 [Apigenin] | 0.481 min |
| Nc1nc2c(ncn2CCC(CO)CO)c(=O)[nH]1 [Penciclovir] | 4.51 min |
| CC(=O)NC(CCCCN)C(=O)O [N-alpha-Acetyl-L-lysine] | 6.17 min |
